Assay results taken from EP0302824A2 (priority 1987, dated 1989).
Where two headings read alike, the source gives them in different places.

What was measured:
[1] = not given; remark: listed apart in the source
[2] = Sw = solubility in water
[3] = assay type: physicochemical; settings: coated maize kernels in 200 ml water, 20°C, 50 rpm
[4] = assay type: physicochemical; settings: sand column; 50 mm artificial rainfall in 48 hours; 5 g/kg a.i.
[5] = Time release of terbufos from coated maize seeds into buffer; assay type: physicochemical
[6] = Solubility of terbufos in water with increasing concentration of surfactant or association polymer
[7] = Release of terbufos from coated corn cob granules into buffer; assay type: physicochemical
[8] = Solubility of terbufos in neat surfactants and PEGs, judged by eye
[9] = Solubilization of terbufos in individual and combined surfactant solutions; settings: for Terbufos Concentration (ppm) Individual Surfactant: maximum 100 ppm terbufos in solution
corn rootworms = test: Field control of corn rootworms by insecticide/polymer combinations applied to the seed; assay type: in vivo, Diabrotica spp.; settings: maize G 4733, 0-6 scale, 63 days after planting

## CNC(=O)Oc1cccc2c1OC(C)(C)C2 [carbofuran]
1000 ppm Alipal EP110
  Solubility of Carbofuran, ppm: 349 ppm
1000 ppm Ethomeen T/15
  Solubility of Carbofuran, ppm: 436 ppm
1000 ppm Pluronic F68
  Solubility of Carbofuran, ppm: 287 ppm
1000 ppm Triton N101
  Solubility of Carbofuran, ppm: 370 ppm
Ethomeen T/15, 1000 ppm
  increase in solubility in surfactant solution over that in water: 30%
H₂O
  Solubility of Carbofuran, ppm: 330 ppm
Triton (N101), 1000 ppm
  increase in solubility in surfactant solution over that in water: 10%

## CCOP(=S)(OCC)Oc1nc(Cl)n(C(C)C)n1 [isazofos]
[1]; isazophos in H₂O
  Solubility (ppm): 62 ppm
[1]; isazophos, 1000 ppm A1, HLB ∼30
  Solubility (ppm): 84 ppm
[1]; isazophos, 1000 ppm A2, HLB ∼30
  Solubility (ppm): 58 ppm
[1]; isazophos, 1000 ppm A4, HLB ∼30
  Solubility (ppm): 180 ppm
[1]; isazophos, 1000 ppm A5, HLB ∼30
  Solubility (ppm): 11 ppm
[1]; isazophos, 1000 ppm AM1
  Solubility (ppm): 98 ppm
[1]; isazophos, 1000 ppm N3, HLB 13.4
  Solubility (ppm): 260 ppm
[1]; isazophos, 1000 ppm N9, HLB 22
  Solubility (ppm): 130 ppm
[1]; isazophos, 1000 ppm N11, HLB 29
  Solubility (ppm): 92 ppm
[1]; isazophos, 1000 ppm N18, HLB 17.3
  Solubility (ppm): 130 ppm
[1]; isazophos, 1000 ppm N24, HLB 15.0
  Solubility (ppm): 170 ppm
[2]
  Sw in ppm: 150 ppm
[3]
  Released Active Substance in % After 4 Hours Association Polymer 17.1: 80.8%
  Released Active Substance in % After 4 Hours Standard Polymer 18.1: 63.5%
[4]
  % a.i. Analyzed in "Traditional" Coats Kernels: 68.2%
  % a.i. Analyzed in "Traditional" Coats Leachate: < 0.5%
  % a.i. Analyzed in "Traditional" Coats Sand: 22.9%
  % a.i. Analyzed in Association Polymer Kernels: 30.1%
  % a.i. Analyzed in Association Polymer Leachate: 34.9%
  % a.i. Analyzed in Association Polymer Sand: 39.7%

## CCOP(=S)(OCC)SCSC(C)(C)C [terbufos]
[5]; Association Polymer (no PVAc), Buffer pH = 5.6, 0.5 hour
  Terbufos Concentration (ppm), Time Release from Coated Seeds: 370 ppm
[5]; Association Polymer (no PVAc), Buffer pH = 5.6, 2 hours
  Terbufos Concentration (ppm), Time Release from Coated Seeds: 350 ppm
[5]; Association Polymer (no PVAc), Buffer pH = 5.6, 4 hours
  Terbufos Concentration (ppm), Time Release from Coated Seeds: 360 ppm
[5]; Association Polymer+PVAc, Buffer pH 5.6, 0.5 hour
  Terbufos Concentration (ppm), Time Release from Coated Seeds: 130 ppm
[5]; Association Polymer+PVAc, Buffer pH 5.6, 2 hours
  Terbufos Concentration (ppm), Time Release from Coated Seeds: 147 ppm
[5]; Association Polymer+PVAc, Buffer pH 5.6, 4 hours
  Terbufos Concentration (ppm), Time Release from Coated Seeds: 210 ppm
[5]; Association Polymer+PVAc, Buffer pH 5.6, 26 hours
  Terbufos Concentration (ppm), Time Release from Coated Seeds: 163 ppm
[5]; Association Polymer+PVAc, Buffer pH 5.6, 69.5 hours
  Terbufos Concentration (ppm), Time Release from Coated Seeds: 122 ppm
[5]; Association Polymer+PVAc, Buffer pH 8.3, 0.5 hour
  Terbufos Concentration (ppm), Time Release from Coated Seeds: 210 ppm
[5]; Association Polymer+PVAc, Buffer pH 8.3, 2 hours
  Terbufos Concentration (ppm), Time Release from Coated Seeds: 240 ppm
[5]; Association Polymer+PVAc, Buffer pH 8.3, 4 hours
  Terbufos Concentration (ppm), Time Release from Coated Seeds: 260 ppm
[5]; Association Polymer+PVAc, Buffer pH=3.3, 2 hours
  Terbufos Concentration (ppm), Time Release from Coated Seeds: 22 ppm
[5]; Association Polymer+PVAc, Buffer pH=3.3, 4 hours
  Terbufos Concentration (ppm), Time Release from Coated Seeds: 7.6 ppm
[5]; PVAc, Buffer pH=5.6, 4 hours
  Terbufos Concentration (ppm), Time Release from Coated Seeds: 1.9 ppm
[5]; PVAc, Buffer pH=5.6, 26 hours
  Terbufos Concentration (ppm), Time Release from Coated Seeds: 2.4 ppm
[6]; 575 ppm surfactant a) (N3, Triton N101)
  terbufos concentration: 64 ppm
[6]; 603 ppm surfactant portion b) (half of 1206 ppm 1:1 association polymer PA 5000:N3)
  terbufos concentration: 52 ppm
[7]; Buffer = 10 ml (Triton = 1000 ppm), 0.5 hours
  Terbufos Concentration (ppm): 61 ppm
[7]; Buffer = 10 ml (Triton = 1000 ppm), 1 hour
  Terbufos Concentration (ppm): 86 ppm
[7]; Buffer = 10 ml (Triton = 1000 ppm), 2 hours
  Terbufos Concentration (ppm): 104 ppm
[7]; Buffer = 10 ml (Triton = 1000 ppm), 3 hours
  Terbufos Concentration (ppm): 81 ppm
[7]; Buffer = 10 ml (Triton = 1000 ppm), 4 hours
  Terbufos Concentration (ppm): 60 ppm
[7]; Buffer = 10 ml (Triton = 1000 ppm), 5 hours
  Terbufos Concentration (ppm): 60 ppm
[7]; Buffer = 20 ml (Triton = 500 ppm), 0.5 hours
  Terbufos Concentration (ppm): 53 ppm
[7]; Buffer = 20 ml (Triton = 500 ppm), 1 hour
  Terbufos Concentration (ppm): 39 ppm
[7]; Buffer = 20 ml (Triton = 500 ppm), 3 hours
  Terbufos Concentration (ppm): 34 ppm
[7]; Buffer = 20 ml (Triton = 500 ppm), 4 hours
  Terbufos Concentration (ppm): 44 ppm
[7]; Buffer = 20 ml (Triton = 500 ppm), 5 hours
  Terbufos Concentration (ppm): 51 ppm
[7]; Buffer = 20 ml (Triton = 500 ppm), 22 hours
  Terbufos Concentration (ppm): 29 ppm
[7]; Buffer = 100 ml (Triton = 100 ppm), 0.25 hours
  Terbufos Concentration (ppm): 2.7 ppm
[7]; Buffer = 100 ml (Triton = 100 ppm), 0.5 hours
  Terbufos Concentration (ppm): 3.2 ppm
[7]; Buffer = 100 ml (Triton = 100 ppm), 1 hour
  Terbufos Concentration (ppm): 3.3 ppm
[7]; Buffer = 100 ml (Triton = 100 ppm), 1.5 hours
  Terbufos Concentration (ppm): 4.3 ppm
[7]; Buffer = 100 ml (Triton = 100 ppm), 2 hours
  Terbufos Concentration (ppm): 4.7 ppm
[7]; Buffer = 100 ml (Triton = 100 ppm), 3 hours
  Terbufos Concentration (ppm): 4.6 ppm
[7]; Buffer = 100 ml (Triton = 100 ppm), 4 hours
  Terbufos Concentration (ppm): 5.9 ppm
[7]; Buffer = 100 ml (Triton = 100 ppm), 5 hours
  Terbufos Concentration (ppm): 5.5 ppm
[7]; Buffer = 100 ml (Triton = 100 ppm), 6 hours
  Terbufos Concentration (ppm): 5.1 ppm
[7]; Buffer = 100 ml (Triton = 100 ppm), 7 hours
  Terbufos Concentration (ppm): 6.7 ppm
[7]; Buffer = 100 ml (Triton = 100 ppm), 28 hours
  Terbufos Concentration (ppm): 7.5 ppm
[8]; 5 µl terbufos in 200 µl of Cl, C2, C4, C7, Al, N1, N4, N5, N6, N8, N12, N24, N25, N26, PEG 200 or PEG 400
  solubility in neat surfactants (no water present) or polyethylene glycols, judged by eye: Soluble
[8]; 5 µl terbufos in 200 µl of anionic A2, A3, A5 or A6
  solubility in neat surfactants (no water present), judged by eye: Insoluble
[9]; A2, 1000 ppm
  Terbufos Concentration (ppm) Individual Surfactant: 2.0 ppm
[9]; A2 with C2, 5 ml portions (1000 ppm) of each, maximum 100 ppm
  Terbufos Concentration (ppm) Combination Surfactant With C2: 38 ppm
[9]; A2 with N3, 5 ml portions (1000 ppm) of each, maximum 100 ppm
  Terbufos Concentration (ppm) Combination Surfactant With N3: 13 ppm
[9]; A4, 1000 ppm
  Terbufos Concentration (ppm) Individual Surfactant: 3.4 ppm
[9]; A4 with N3, 5 ml portions (1000 ppm) of each, maximum 100 ppm
  Terbufos Concentration (ppm) Combination Surfactant With N3: 28 ppm
[9]; C2, 1000 ppm
  Terbufos Concentration (ppm) Individual Surfactant: 12 ppm
[9]; C2 with N3, 5 ml portions (1000 ppm) of each, maximum 100 ppm
  Terbufos Concentration (ppm) Combination Surfactant: 64 ppm
[9]; N3, 1000 ppm
  Terbufos Concentration (ppm) Individual Surfactant: 65 ppm
[9]; N7, 1000 ppm
  Terbufos Concentration (ppm) Individual Surfactant: 1.1 ppm
[9]; N7 with C2, 5 ml portions (1000 ppm) of each, maximum 100 ppm
  Terbufos Concentration (ppm) Combination Surfactant With C2: 6.7 ppm
[9]; N7 with N3, 5 ml portions (1000 ppm) of each, maximum 100 ppm
  Terbufos Concentration (ppm) Combination Surfactant With N3: 54 ppm
[9]; N8, 1000 ppm
  Terbufos Concentration (ppm) Individual Surfactant: 1.2 ppm
[9]; N8 with C2, 5 ml portions (1000 ppm) of each, maximum 100 ppm
  Terbufos Concentration (ppm) Combination Surfactant With C2: 39 ppm
[9]; N8 with N3, 5 ml portions (1000 ppm) of each, maximum 100 ppm
  Terbufos Concentration (ppm) Combination Surfactant With N3: 40 ppm
[9]; N10, 1000 ppm
  Terbufos Concentration (ppm) Individual Surfactant: 0.7 ppm
[9]; N10 with C2, 5 ml portions (1000 ppm) of each, maximum 100 ppm
  Terbufos Concentration (ppm) Combination Surfactant With C2: 36 ppm
[9]; N10 with N3, 5 ml portions (1000 ppm) of each, maximum 100 ppm
  Terbufos Concentration (ppm) Combination Surfactant With N3: 38 ppm
[9]; N11, 1000 ppm
  Terbufos Concentration (ppm) Individual Surfactant: 0.5 ppm
[9]; N11 with C2, 5 ml portions (1000 ppm) of each, maximum 100 ppm
  Terbufos Concentration (ppm) Combination Surfactant With C2: 9.5 ppm
[9]; N11 with N3, 5 ml portions (1000 ppm) of each, maximum 100 ppm
  Terbufos Concentration (ppm) Combination Surfactant With N3: 24 ppm
Corn rootworms; Granule, 0.1 g m⁻¹
  Ratings for corn rootworm damage: 2.2
Corn rootworms; seed treatment Association Polymer, 10 g/kg
  Ratings for corn rootworm damage: 2.6
Corn rootworms; seed treatment PVAc/PVAl, 10 g/kg
  Ratings for corn rootworm damage: 3.1
Corn rootworms; seed treatment PVAc/PVAl, 30 g/kg
  Ratings for corn rootworm damage: 2.8
